From US20110166196A1, “TREATMENT AND PROPHYLAXIS OF EPILEPSY AND FEBRILE SEIZURES” (priority 2008, published 2011)

How the values were obtained:
[1] = tested on: excitatory synapses onto CA1 hippocampal interneurons; test: Synaptic failure analysis using minimal stimulation; format: cell-based, rat; conditions: capsaicin 1 μM; pre-capsaicin 38.4±3.5%; n=5
Description: Slices were continuously perfused with ACSF warmed to 28-32° C. at a flow rate of 1-2 ml/min. Picrotoxin (100 μM) and D-AP5 (50 μM) were added to block GABAA receptor- and NMDAR-mediated synaptic transmission. Whole-cell patch clamp recordings were made from interneurons identified visually in the CA1 stratum radiatum of the hippocampus. […] Patch pipettes were filled with internal recording solution containing in mM: 117 cesium gluconate, 2.8 NaCl, 5 MgCl2, 20 HEPES, 2 ATP-Na^+, 0.3 GTP-Na^+ and 0.6 EGTA. In some experiments 2 μM capsazepine, 140 nM baicalein, or 250 μM GDPβS were also included in the intracellular patch pipette solution. In experiments with BAPTA-containing patch electrodes, EGTA was omitted from the intracellular solution and 25 or 40 mM BAPTA replaced a corresponding amount of cesium gluconate. EPSCs were stimulated at 0.1 Hz (100 μsec) using a bipolar stainless steel stimulating electrode placed in stratum radiatum at least 200 μm from the recorded cell. […] In early experiments, we measured rectification ratios of EPSCs evoked at +40 mV/−60 mV in the presence of 50 μM D-AP5, measured at the time of peak inward synaptic current seen at −70 mV (Lei and McBain, 2004).

[2] = target: T1, TRPV1 channels (Mus musculus, UniProt Q704Y3); test: Heat-ramp evoked inward current and depolarization in CA1 pyramidal neurons of wild-type mice; format: cell-based
T1 construct: whole-cell recordings from acutely prepared brain slices from wild type C57BL/6 mice; from tissue; host or cells: acute coronal hippocampal slices from P14-P20 wild-type C57BL/6 mice: CA1 pyramidal neurons

[3] = tested on: area CA3 stratum pyramidale; test: Heat-induced multi-unit activity (MUA) in hippocampal slices, field-potential recording; format: cell-based, mouse; conditions: wild-type slices pre-treated with capsazepine; p<0.05 vs untreated wild-type, n=27
Description: Coronal brain slices, 300-350 μm, were obtained from mice aged postnatal day 14-20 as previously described (Gibson et al., 2008; Gibson et al., 1999; McMahon & Kauer, 1997). Bathing perfusate was identical to previous except where indicated. A Haas-type interface chamber was used for field-potential recordings. Glass micropipettes were filled with 0.9% NaCl (resistance 400-700 kΩ). Simultaneous recordings were made in stratum pyramidale of CA1 and CA3 of each slice. Activity was recorded at 30° C. (5 min), ramped to 42° C. (5 min) and returned to 30° C. (10 min). Signals were amplified, digitally recorded at 10 kHz and stored (LabView).
For field-potential recordings, coronal slices, 350 μm thick, were obtained from P14-15 mice as previously described (Gibson et al., 2008; Gibson et al., 1999; McMahon & Kauer, 1997). Slices were kept at room temperature for at least 30 min until transferred to a 30° C. recording chamber. […] For all field-potential recordings, activity was recorded at 30° C. […] Signals were amplified, digitally recorded at 10 kHz and stored using an in-house LabView based program.
Multi-unit activity (MUA) was high-pass filtered at 500 Hz and spikes were detected using threshold-crossing criteria. […]
All combined data are expressed as mean±the standard error of the mean (s.e.m.). […]

T1 sequence (Q704Y3 whole entry): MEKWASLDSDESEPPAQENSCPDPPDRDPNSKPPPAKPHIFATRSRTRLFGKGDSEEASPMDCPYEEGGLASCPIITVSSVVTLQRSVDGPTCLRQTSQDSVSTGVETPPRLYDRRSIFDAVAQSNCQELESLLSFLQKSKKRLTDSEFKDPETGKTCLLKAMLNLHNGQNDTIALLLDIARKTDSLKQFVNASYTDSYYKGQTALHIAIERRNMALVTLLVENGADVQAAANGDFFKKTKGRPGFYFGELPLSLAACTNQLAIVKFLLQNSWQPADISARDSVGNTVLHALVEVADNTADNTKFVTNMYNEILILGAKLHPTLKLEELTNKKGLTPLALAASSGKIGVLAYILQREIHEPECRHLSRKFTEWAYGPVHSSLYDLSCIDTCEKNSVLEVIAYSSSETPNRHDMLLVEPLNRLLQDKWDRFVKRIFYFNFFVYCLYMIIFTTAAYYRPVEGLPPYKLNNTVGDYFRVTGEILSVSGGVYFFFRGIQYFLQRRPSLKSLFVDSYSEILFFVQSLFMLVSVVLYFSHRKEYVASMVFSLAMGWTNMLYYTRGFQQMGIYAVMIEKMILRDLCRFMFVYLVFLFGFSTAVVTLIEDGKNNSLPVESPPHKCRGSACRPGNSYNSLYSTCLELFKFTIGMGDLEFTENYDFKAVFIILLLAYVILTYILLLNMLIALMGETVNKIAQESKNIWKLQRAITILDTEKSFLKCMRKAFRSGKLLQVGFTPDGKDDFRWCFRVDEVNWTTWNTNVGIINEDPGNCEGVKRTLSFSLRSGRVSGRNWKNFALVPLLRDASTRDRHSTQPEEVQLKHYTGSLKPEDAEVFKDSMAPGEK

| heat-induced change of membrane potential in CA1 neurons ([2]; 2 μM intracellular capsazepine, current clamp, ramp 30 to 42° C., absence 19.7±4.5 mV, n=6) [mV] | effect on heat-evoked current in CA1 pyramidal neuron ([2]; bath-applied capsazepine 10 μM, voltage clamp, heat ramp) | Structure (SMILES) | average synaptic failures in capsaicin [1] [%] | incidence of heat-induced increased MUA in area CA3 [3] |
| --- | --- | --- | --- | --- |
| – | – | COc1cc(CNC(=O)CCCCC=CC(C)C)ccc1O [capsaicin, 8-methyl-N-vanillyl-6-nonenamide] | 73.5±7.8 | – |
| 1.0±0.7 | blocked | Oc1cc2c(cc1O)CN(C(=S)NCCc1ccc(Cl)cc1)CCC2 [capsazepine] | – | mimicked trpv1^−/− incidence rates of increased MUA in area CA3 |
